Data as given in patent US11986475B1, “Compositions and methods for treating cancer” (A2A Pharmaceuticals, Inc., priority 2022, dated 2024).

Key:
MDA-MB-231 = experiment: Cell viability assay (SRB or CTG) in MDA-MB-231; assay type: cell-based; details: Homo sapiens, MDA-MB-231, 72 h, 3 days after drug treatment
Protocol: (§1) Human breast carcinoma cell line, MDA-MB-231 and human endometrial cancer cell line, HEC-59 were purchased from ATCC (American Type Culture Collection; USA). MDA-MB-231 cells were cultured in Dulbecco's modified Eagle's medium (Lonza, NJ, USA), and HEC-59 were grown in Iscove's Modified Dulbecco's Medium (Lonza, NJ, USA), supplemented with 10% fetal bovine serum (FBS, Lonza), 1% non-essential amino acid (NEAA), 2 mM L-glutamine (Sigma Aldrich, MO, USA) and 50 U/ml penicillin/streptomycin (P/S). All cell lines were tested regularly using MycoAlert Mycoplasma Detection Kit (Lonza). The cumulative length of the cells between thawing and use in the experiments was less than 20 passages.
(§2) 4000 cells/well of MDA-MB-231 and HEC-59 cells were seeded in a 96 well plate in 80 μL media/well. Approximately 18 hours later, 3× drug solutions were prepared by serial dilution (100, 10, 5, 1, 0.5, 0.3, 0.1, 0.05, 0.01 μM), and the drug containing media was added to each well with a volume of 40 μL. For MDA-MB-231, 3 days after drug treatment, the SRB or CTG assay was performed. HEC59, the drug containing media was renewed at day 4. After 7 days total, the SRB or CTG assay was performed.

HEC-59 = experiment: Cell viability assay (SRB or CTG) in HEC-59; assay type: cell-based; details: Homo sapiens, 7 days total, media renewed at day 4, SRB or CTG
Protocol: as §1, §2

RKO xenograft = experiment: RKO colon cancer xenograft tumor growth; assay type: in vivo, female athymic Balb/c nude mice
Protocol: Six-to-eight-week-old female athymic Balb/c nude mice were housed with a temperature-controlled and 12-hour light/12-hour dark cycle environment. For in vivo colon cancer tumor growth, 5×10^6 RKO cells were prepared in 100 μl of DMEM and injected into right flank of female nude mice. Mouse weight and tumor volume were measured twice a week. Tumor volumes were calculated as length×width^2×0.5. Once the tumor volume had reached about 150-175 mm^3, xenografts were randomized into groups (8 mice per group). Animals were treated with vehicle, Compound 80 or oxaliplatin as mentioned in the table. The formulation for vehicle and Compound 80 was 50% PEG400 and 20% Cremophor RH40 final (50% of 40% Cremophor) in Acetate buffer, PH=4. Oxaliplatin was prepared in glucose solution. The mice were sacrificed after around 3 weeks or if the tumors reached a predefined tumor volume cut-off of 2500 mm^3.

MDA-MB-231 xenograft = MDA-MB-231 xenograft tumor growth; assay type: in vivo, female athymic Balb/c nude mice; details: MDA-MB-231 xenograft, 20, 25 and 30 mpk BID
Protocol: (§3) Compound 80 was tested in other xenograft models using the following cell lines: triple negative breast cancer cell line, MDA-MB-231, ovarian cancer cell line, SKOV-3 and endometrium cell line, HEC-59. For the SKOV-3 xenograft, 1.5×10^7 SKOV-3 cells in 200 μl of 1:1 DMEM: Matrigel (Thermo Fisher, NJ, USA) and for the MDA-MB-231 xenograft, 1.5×10^7 MDA-MB-231 cells in 100 μl of 1:1 DMEM: Matrigel (Thermo Fisher, NJ, USA) for was injected in the right flank of six-to-eight-week-old female athymic Balb/c nude mice. When the tumor volume reached mean of ˜200 mm^3 mice for SKOV-3 xenografts and between 150-175 mm^3 for MDA-MB-231 xenografts, mice were randomized in a group of 8, and treatment was initiated vehicle, 20 mpk BID, 25 mpk BID and 30 mpk BID of Compound 80. For the HEC-59 xenografts, 1.×10^7 HEC-59 cells in 100 μl of DMEM (Lonza, NJ, USA) was injected in the right flank of six-to-eight-week-old female athymic Balb/c nude mice. When the tumor volume reached mean of ˜150 mm^3 mice were randomized in a group of 8 mice, and treatment was initiated vehicle, 20 mpk BID, 40 mpk QD and 30/40 mpk BID of Compound 80.

SKOV-3 xenograft = SKOV-3 xenograft tumor growth; assay type: in vivo, female athymic Balb/c nude mice; details: SKOV-3 xenograft, 20, 25 and 30 mpk BID
Protocol: as §3

HEC-59 xenograft = HEC-59 xenograft tumor growth; assay type: in vivo, female athymic Balb/c nude mice; details: 20 mpk BID, 40 mpk QD and 30/40 mpk BID
Protocol: as §3

Compound: C[C@@H]1CN(c2ncc(F)c(Nc3cc(-c4ccc(OC(F)F)cc4)cnn3)n2)C[C@H](C)O1 [Compound 80, 5-(4-(difluoromethoxy)phenyl)-N-(2-((2R,6S)-2,6-dimethylmorpholino)-5-fluoropyrimidin-4-yl)pyridazin-3-amine]
- IC50 (MDA-MB-231): 0.398 µM
- IC50 (HEC-59): 0.236 µM
- tumor growth inhibition (in words) (RKO xenograft; RKO xenograft, 20 and 30 mg/kg BID, 50 mg/kg QD PO): strong tumor growth inhibition in a dose-dependent manner
- TGI (RKO xenograft; RKO xenograft, at the highest dose, PO, 20 days): 85%
- tumor growth inhibition compared to the standard of care (FIG. 1) (RKO xenograft; xenograft model, versus standard of care (oxaliplatin)): superior tumor growth inhibition
- tumor growth inhibition or regression (MDA-MB-231 xenograft): Statistically significant tumor growth inhibition or regression was observed
- tumor growth inhibition or regression (SKOV-3 xenograft): Statistically significant tumor growth inhibition or regression was observed
- tumor growth inhibition or regression (HEC-59 xenograft): Statistically significant tumor growth inhibition or regression was observed
